Source: patent US20260083859A1, “SUSTAINED TRANSGENE EXPRESSION OF MODIFIED ERT2 PEPTIDE-SUICIDE PROTEIN FUSION POLYPEPTIDES” (Senti Biosciences, Inc., priority 2023, published 2026)

Tests used:
[1] = tested on: PSC-derived myeloid progenitor cells; experiment: TamCasp9 Safety Switch activation in PSC-derived myeloid progenitor cells, AOPI staining, Incucyte SX5; assay type: cell-based, human; settings: unedited differentiated myeloid progenitors, combination 4-OHT and Endoxifen treatment
Description: A hPSC line engineered with TamCasp9 Construct 1 and an unedited parental control hPSC line were differentiated into myeloid progenitor cells through the addition of various growth factors and small molecules. Differentiated cells were plated at 1×10^5 cells/cm^2 in an ultra-low attachment cell culture plate for further myeloid cell maturation. After 7 days in maturation medium, cells were collected and frozen down.
For testing of TamCasp9 Safety Switch activation, myeloid cells were plated at 1.5×10^5 cells/cm^2 in a 96-well tissue culture plate with a 1:750 dilution of ViaStain AOPI Staining Solution (Nexcelom) in X-VIVO 15 Medium with 10 ng/mL GM-CSF. The kill switch was induced with 0, 1, 10 or 100 uM of Endoxifen over 3 days and images were collected every 6 hours on the Incucyte SX5 (Sartorius).
To better model predicted drug concentrations in a patient by testing activation of the kill switch against a range of tamoxifen metabolites, the PSC clone Construct 1 c.165, engineered to incorporate an exemplary modified ERT2 peptide-suicide protein fusion polypeptide construct (Table 3), was differentiated to myeloid progenitor cells as depicted in FIG. 13A. Differentiated cells were plated at 1×10^5 cells/cm^2 in an ultra-low attachment cell culture plate for further myeloid cell maturation. After 7 days in maturation medium, cells were collected and frozen down. For testing of TamCasp9 Safety Switch activation, myeloid cells were plated at 1.0×10^5 cells/cm^2 in a 96-well tissue culture plate with a 1:750 dilution of ViaStain AOPI Staining Solution (Nexcelom) in X-VIVO 15 Medium with 10 ng/mL GM-CSF. The kill switch was induced with varying concentrations of combination 4-OHT and Endoxifen treatment over 4 days and images were collected every 4 hours on the Incucyte SX5, with 12 hour timepoints plotted on a graph (Sartorius) (FIG. 14). Either 2.5 nM or 5 nM of Endoxifen was tested in combination with either 0.5 nM, 1 nM or 10 nM of 4-OHT. 100 nM Endoxifen was added as positive killing control as per FIG. 13E.

[2] = tested on: PSC-derived microglial precursor cells or myeloid progenitor cells; experiment: Apoptosis in PSC-derived microglial precursor cells or myeloid progenitor cells (Example 8); assay type: cell-based; settings: cells from PSCs engineered with Table 3 constructs; 1, 5, 50 or 100 nM 4-OHT, or 5, 10, 50 or 100 nM Endoxifen
Description: To validate conservation of kill switch function after PSCs are differentiated to precursor cells or myeloid progenitor cells, PSCs engineered to incorporate the modified ERT2 peptide-suicide protein fusion polypeptide constructs outlined in Table 3 were differentiated into microglial precursor cells or myeloid progenitor cells. Thereafter PSC-derived microglial precursor cells or myeloid progenitor cells are treated with Endoxifen, 4-OHT or media alone and tested for incorporation of the modified ERT2 peptide-suicide protein fusion polypeptide in the STEL site.
To test function of the modified ERT2 peptide-suicide protein fusion polypeptide constructs in PSC-derived microglial precursor cells or myeloid progenitor cells, cells are cultured, then treated with either lnM, 5 nM, 50 nM, or 100 nM 4-OHT, or 5 nM, 10 nM, 50 nM, or 100 nM Endoxifen, before assessment of apoptosis.

[3] = tested on: PSC-derived dopaminergic neurons; experiment: Apoptosis in PSC-derived dopaminergic neurons (Example 9); assay type: cell-based; settings: neurons from PSCs engineered with Table 3 constructs; 1, 5, 50 or 100 nM 4-OHT, or 5, 10, 50 or 100 nM Endoxifen
Description: To validate conservation of kill switch function after PSCs are differentiated to dopaminergic neurons, PSCs engineered to incorporate the modified ERT2 peptide-suicide protein fusion constructs outlined in Table 3 are differentiated into dopaminergic neurons. Thereafter PSC-derived dopaminergic neurons are treated with Endoxifen, 4-OHT or media alone and tested for incorporation of the modified ERT2 peptide-suicide protein fusion polypeptide construct in the STEL site.
To test function of the modified ERT2 peptide-suicide protein fusion polypeptides in PSC-derived dopaminergic neurons, dopaminergic neurons are cultured, then treated with either lnM, 5 nM, 50 nM, or 100 nM 4-OHT; or 5 nM, 10 nM, 50 nM, or 100 nM Endoxifen, before assessment of apoptosis.

human iPSCs = experiment: Conventional PCR (agarose gel) of knock-in iPSC pools, with or without 4-OHT; assay type: cell-based; settings: iPSC pools treated with 1 nM 4-OHT
Description: Modified ERT2 peptide-suicide protein fusion polypeptide encoding constructs were delivered to human iPSCs via Nucleofection with a GAPDH targeting ribonucleoprotein (RNP) complex comprising of Cpf1 endonuclease and a single guide RNA (sgRNA) targeting the coding sequence of the GAPDH gene. The sgRNA comprised a sequence 5′ […] 3′ (SEQ ID NO: 60). Briefly, iPSCs were cultured in Essential 8 (E8) medium and maintained at 37° C. at 5% CO2 level between passages. Passages were done at 75 to 80% confluency. On the day of Nucleofection, iPSCs were thawed and immediately Nucleofected in Lonza P3 Primary Cell Nucleofection buffer. 7.5 μg of each plasmid construct (BRC00058-61) were Nucleofected into iPSCs using GAPDH Cpf1 RNP with LONZA 4D Nucleofector. The Nucleofected cells were then plated at 50,000 cells/cm^2 per well of a 6-well plate and grown in E8 medium (plus Rock inhibitor Y-27632 from Tocris) for 72 to 96 hours. Knock-in pools were screened for integration 7d post-Nucleofection using ddPCR, as well as conventional PCR.

iPSCs = experiment: Apoptosis induction in transfected iPSCs monitored by microscopy and Incucyte tracking; assay type: cell-based, human; settings: unedited control cells, 1 nM 4-OHT, up to two days
iPSC clones = experiment: Apoptotic efficacy in individual construct clones treated with 4-OHT, Endoxifen or combinations; assay type: cell-based, human; settings: clone Construct 1 c.165
Description: Next, individual clones that were determined to be suitable for further assessments were evaluated for 24 hours in the presence of 4-OHT at two different concentrations.
Individual Construct 1-4 clones were also assessed for their responses to another tamoxifen metabolite, Endoxifen. Clones were evaluated for 24 hours in the presence of Endoxifen at three different concentrations.
Tamoxifen is a prodrug that is broken down into its active metabolites in vivo. To model predicted drug concentrations in a patient, the clone Construct 1 c.165 was treated with various combinations of 4-OHT and Endoxifen, wherein 1.25 nM Endoxifen was combined with a concentration of 4-OHT ranging between 0.125 nM to 1 nM (FIG. 12A). […] In the next evaluation, 0.125 nM 4-OHT was combined with either 0.625 or 1.25 nM Endoxifen (FIG. 12B).

For 4-hydroxytamoxifen [Construct 4-OHT], which “apoptosis in unedited cells” value [1] is on record?
Its value is “did not induce apoptosis”.

And the apoptosis [2]?
Its apoptosis is “resulted in apoptosis”.

And the apoptosis [3]?
The apoptosis was “resulted in apoptosis”.

And the “amount of cells carrying integration of kill-switch fusion sequences (PCR band intensity)” value (human iPSCs)?
Its value is “reduced the amount of cells that carried integration of the kill-switch fusion sequences at the GAPDH locus”.

What about the “cell growth and density” value (iPSCs) of the same substance?
Its value is “no detectable effect on cell health and growth”.

And the “lowest effective concentration in 4-OHT-Endoxifen combination” value (iPSC clones)?
Its value is 0.125 nM.
